# Test results reported in US20190167647A1, “PHARMACEUTICAL COMPOSITION FOR STROKE TREATMENT BASED ON AMPK INHIBITION” (INDUSTRY ACADEMY COOPERATION FOUNDATION OF SEJONG UNIVERSITY, priority 2016, published 2019).
# What was measured:
# neuronal cells = assay: H2O2 neurotoxicity with chelators (LDH secretion); type: cell-based
# Method: There is reported that intracellular free zinc is increased in a neurotoxicity mechanism due to hydrogen peroxide, wherein hydrogen peroxide toxicity is reduced when the cells are treated using the zinc chelator. […] Therefore, in order to monitor whether effects of the drug #28 are associated with a reduction of zinc in the above case, the neuronal cells were treated with hydrogen peroxide (H2O2), a zinc chelator such as TPEN or CaEDTA and a calcium chelator such as ZnEDTA, followed by monitoring neurotoxicity (LDH secretion).
# [1] = system: cultured cerebral cortex neurons of a mouse; assay: H2O2-induced neurotoxicity, propidium iodide staining; type: cell-based; conditions: H2O2 100 μM 4.5 hours; 10 μM drug; excepted drugs = no significant inhibition
# Method: More particularly, the neurotoxicity model for observation of neurotoxicity inhibitory effects includes excitotoxicity, oxidative damage, etc. which are classified as a cause mechanism of stroke. NMDA (N-methyl-D-aspartate) was used as the excitotoxicity model while the oxidative model used herein was a hydrogen peroxide (H2O2) toxicity model. First, using NMDA (50 μM) or H2O2 (100 μM), the cultured cerebral cortex neurons of a mouse were treated for 1.5 hours and 4.5 hours, respectively, resulting in induction of neurotoxicity. The neurons were further treated with the selected 12 drugs (10 μM) as well as the existing selected drug #28 (20 μM). Then, after staining the neurons with propidium iodide (PI), the stained cells were quantified to determine a degree of cell death.
# mouse = conditions: administered to a mouse; cited from earlier work
# cerebral cortex neurons = assay: Western blot of Bim and caspase-3 after zinc treatment; type: cell-based, mouse; conditions: 300 μM ZnCl2, 20 μM compound
# Method: More particularly, the cerebral cortex neurons were treated with 300 μM zinc (ZnCl2) for 2, 3, 4, 5 and 6 hours to induce zinc toxicity. From each sample, protein was separated and subjected to Western blot and treatment using 20 μM compound C (+Cpd C) as an AMPK inhibitor, so as to identify a relationship between the zinc toxicity and apoptosis.
# [2] = system: cultured cerebral cortex neurons; assay: Zinc neurotoxicity, TUNEL staining and LDH assay; type: cell-based, mouse; conditions: 300 μM ZnCl2 10 min, 10 hours later; 20 μM compound
# Method: Cerebral cortex neurons of a mouse used in the present invention were extracted from the mouse embryos brain and cultured, followed by further culturing the same using a Dulbecco's modified Eagle's medium (DMEM, Gibco, Grand Island, N.Y., US) containing 5% fetal bovine serum (FBS) and 5% horse serum (HS) under conditions of 95% humidity, 5% CO2 and 37° C. temperature. For activation and differentiation of the above cells, these cells were proliferated at a density of 2×10^4 cells in 24-well tissue culture plate. Further, prior to treatment using zinc and the compounds, the cells were incubated in MEM medium without FBS and HS.
# More particularly, the cultured cerebral cortex neurons according to the embodiment of the present invention were treated with 300 μM zinc (ZnCl2) for 10 minutes then removed. 10 hours later, cytotoxicity was observed by TUNEL staining or LDH (Lactate Dehydrogenase). Further, these cells were treated with AMPK inhibitor, that is, 20 μM compound C (+Cpd C, Tocris), followed by observation whether neurotoxicity is reduced or not.
# [3] = molecular target: T1, recombinant AMPK (α2/β1/γ1) (Homo sapiens, UniProt P54646); assay: AMPK enzymatic activity assay (CycLex kit); type: biochemical; conditions: 10 μM
# T1 construct: purchased CycLex, Japan
# T1 sequence (P54646 whole entry): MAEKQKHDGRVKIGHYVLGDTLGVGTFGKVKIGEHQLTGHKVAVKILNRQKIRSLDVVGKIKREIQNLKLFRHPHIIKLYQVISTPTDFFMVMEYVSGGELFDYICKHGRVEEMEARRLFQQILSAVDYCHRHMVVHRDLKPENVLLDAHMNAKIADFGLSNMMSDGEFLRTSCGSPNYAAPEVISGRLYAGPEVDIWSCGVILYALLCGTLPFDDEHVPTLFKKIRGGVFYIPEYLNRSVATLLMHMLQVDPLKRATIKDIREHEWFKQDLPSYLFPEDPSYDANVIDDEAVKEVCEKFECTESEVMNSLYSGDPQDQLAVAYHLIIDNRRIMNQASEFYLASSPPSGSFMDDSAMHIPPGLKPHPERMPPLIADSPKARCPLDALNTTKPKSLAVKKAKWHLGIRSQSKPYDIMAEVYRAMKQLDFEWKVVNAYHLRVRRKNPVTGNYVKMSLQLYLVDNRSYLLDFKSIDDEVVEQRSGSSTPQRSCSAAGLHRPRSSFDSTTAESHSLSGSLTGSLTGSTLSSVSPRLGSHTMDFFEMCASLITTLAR
# T1 sequence (Q9Y478 whole entry partner): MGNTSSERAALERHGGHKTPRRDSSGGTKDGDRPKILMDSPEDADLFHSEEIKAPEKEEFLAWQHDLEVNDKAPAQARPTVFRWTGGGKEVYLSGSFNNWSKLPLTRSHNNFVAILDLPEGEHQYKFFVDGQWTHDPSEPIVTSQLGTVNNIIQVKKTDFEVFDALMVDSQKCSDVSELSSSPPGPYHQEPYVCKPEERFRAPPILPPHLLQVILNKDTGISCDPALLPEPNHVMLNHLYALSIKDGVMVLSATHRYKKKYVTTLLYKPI
# T1 sequence (P54619 whole entry partner): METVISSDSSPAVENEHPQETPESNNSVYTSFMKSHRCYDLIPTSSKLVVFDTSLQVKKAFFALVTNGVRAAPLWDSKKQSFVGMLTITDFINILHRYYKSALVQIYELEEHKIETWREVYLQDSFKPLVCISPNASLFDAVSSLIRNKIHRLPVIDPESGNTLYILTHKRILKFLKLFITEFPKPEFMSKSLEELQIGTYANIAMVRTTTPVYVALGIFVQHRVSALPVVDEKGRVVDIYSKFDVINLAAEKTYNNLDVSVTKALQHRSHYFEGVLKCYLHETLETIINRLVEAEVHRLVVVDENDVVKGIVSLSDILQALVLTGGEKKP
# Method: More particularly, AMPK enzymatic activity was measured by an AMPK activity assay kit (CycLex, Japan) and recombinant AMPK (α2/β1/γ1 CycLex, Japan).
# [4] = Calcium chelation with Fura-2 dye (test tube); type: physicochemical; conditions: Fura-2 dye, test tube
# Method: In order to determine whether the above result is obtained by the chelation of Ca^2+ ions other than the drug #28, protective effects of the drug #28 (10 to 60 μM) after treatment using ionomycin, which is a calcium ion permeable carrier (‘calcium ionophore’) directly increasing the intracellular calcium concentration, were under observation. Further, using a Fura-2 dye that is combined with calcium to represent fluorescence, it was monitored whether the drug #28 is combined with calcium on a test tube and represents chelating effects.
# [5] = system: cultured cerebral cortex neurons of a mouse; assay: Zinc ion permeable carrier test, ZinPyr-1; type: cell-based; conditions: #28 0.05 μM, clioquinol 0.5 μM
# Method: ZinPyr-1 is a fluorescent dye which has a lower Kd value than that of FluoZin-3 and is used to measure a change in a zinc concentration even at a lower concentration. Whether the drug #28 of the present invention can act as an ion permeable carrier was under observation using ZinPyr-1. More particularly, the cultured cerebral cortex neurons of a mouse were treated with ZinPyr-1 then treated with the drug #28 (0.05 μM) and clioquinol (0.5 μM) in a typically used neuronal cell culture medium, so as to determine a change in zinc ion concentrations in the neurons. Also, a non-treatment group was used as a control group.
# Therefore, after adding a further 0.5 μM concentration of zinc to the cell culture medium, a change in zinc concentration in the cells was under observation.
# [6] = Free zinc concentration by fluorescent dye (Newport green DCF, FluoZin-3); type: physicochemical; conditions: 20 μM; Newport green DCF or FluoZin-3
# Method: Further, in conjunction with clioquinol (20 μM) or the drug #28 (20 μM), a zinc fluorescent dye, i.e., Newport green DCF (0.5 μM, Kd(Zn)=1 uM) or FluoZin-3 (0.5 μM, Kd(Zn)=15 nM) was used for measurement of free zinc concentration.
# mouse cortical cultures [7] = assay: TPEN-induced caspase-3 activity; type: cell-based
# Source text: (§1) Generally, application of TPEN as a zinc chelator easily flowing into the cells causes a cell death in the form of typical apoptosis (EDTA is not introduced into the cells). When adding zinc to the above treatment, intracellular free zinc ions are retained thus to reduce neuronal death and further reduce caspase-3 protease activity in the apoptosis process. Under expectation such that: the drug #28 and clioquinol may not only serve as a chelator but also play a role of an ion permeable carrier; these drugs flow into cells as combined with zinc; thereafter, the zinc is removed from the drug because a concentration of free zinc in the cytoplasm is too low; therefore, the concentration of free zinc in the cytoplasm is increased thus to reduce neurotoxicity due to TPEN, caspase-3 activity and neurotoxicity (LDH secretion) were under observation after treatment using zinc, the drug #28 and clioquinol.
# mouse cortical cultures [8] = assay: TPEN-induced neurotoxicity (LDH secretion); type: cell-based
# Source text: as §1
smiles,measurement,setting,value
O=C([O-])CN(CCN(CC(=O)[O-])CC(=O)[O-])CC(=O)[O-].[Ca+2].[Na+].[Na+] [CaEDTA],neurotoxicity caused by hydrogen peroxide,neuronal cells,significantly reduced toxicity
"Cc1ccccc1NC1=NC(=O)/C(=C/c2c[nH]c3ccccc23)S1 [Compound 4B03, (5Z)-5-(1H-Indol-3-ylmethylene)-2-[(2-methylphenyl)amino]-1,3-thiazol-4(5H)-one]",inhibition of H2O2-induced neurotoxicity,[1],other than two drugs
"Cc1cccc(NC2=NC(=O)/C(=C/c3c[nH]c4ccccc34)S2)c1C [Compound 4B04, (5Z)-2-[(2,3-Dimethylphenyl)amino]-5-(1H-indol-3-ylmethylene)-1,3-thiazol-4(5H)-one]",inhibition of H2O2-induced neurotoxicity,[1],other than two drugs
C=C1C(=O)OC(CCCCCCCC)C1C(=O)O (stereo not drawn) [Compound C75],size of infarcted part,mouse,significantly reduces a size of an infracted part
c1cc(-c2cnn3cc(-c4ccc(OCCN5CCCCC5)cc4)cnc23)ccn1 [Compound C],increase in Bim caused by zinc toxicity,cerebral cortex neurons,reduce
same,increase in caspase-3 activity caused by zinc toxicity,cerebral cortex neurons,reduce
same,size of infarcted part,mouse,significantly reduces a size of an infracted part
same,zinc neurotoxicity (TUNEL staining and LDH assay),[2],significantly reduced
same,Mean (% remaining activity),[3],5.3000%
"O=C(O)CN(CCN(CC(=O)O)CC(=O)O)CC(=O)O [EDTA, reference compound]",chelating effects for calcium,[4],good chelating effects at a low calcium concentration
"c1ccc(CN(CCN(Cc2ccccn2)Cc2ccccn2)Cc2ccccn2)nc1 [TPEN, N,N,N′,N′-tetrakis (2-pyridylmethyl) ethylenediamine]",neurotoxicity caused by hydrogen peroxide,neuronal cells,reduced neurotoxicity caused by hydrogen peroxide
O=C([O-])CN(CCN(CC(=O)O)CC(=O)O)CC(=O)[O-].[Zn+2] [ZnEDTA],neurotoxicity caused by hydrogen peroxide,neuronal cells,did not inhibit toxicity
"Oc1c(I)cc(Cl)c2cccnc12 [clioquinol, reference compound]","increase of zinc in neurons, general culture conditions",[5],an increase of zinc by clioquinol was observed
same,free zinc ions,[6],reduce free zinc ions
same,caspase-3 activity induced by TPEN,mouse cortical cultures [7],significantly reduce caspase-3 activity induced by TPEN
same,neurotoxicity by TPEN,mouse cortical cultures [8],decrease neurotoxicity by TPEN
[Cl-].[Cl-].[Zn+2] [zinc],caspase-3 activity induced by TPEN,mouse cortical cultures [7],significantly reduce caspase-3 activity induced by TPEN
same,neurotoxicity by TPEN,mouse cortical cultures [8],decrease neurotoxicity by TPEN
